The record followed here is ChEMBL document CHEMBL2375309, “19-[(1'S,4'R)-4'-Hydroxy-1'-methoxy-2'-oxopentyl]geldanamycin, a natural geldanamycin analogue from Streptomyces hygroscopicus 17997” (J Nat Prod, 2013).

A short description of data set [1]: Aqueous solubility of the compound. It is filed as physicochemical.
In another data set the test system is HepG2. In words: Cytotoxicity against human HepG2 cells by MTT assay. The format is functional, cell-based.

The structures appear in SMILES notation. ≈ marks a conversion by molar mass, not a printed value.

In data set [1], `COC1=C2C[C@@H](C)C[C@H](OC)[C@H](O)[C@@H](C)/C=C(\C)[C@H](OC(N)=O)[C@@H](OC)CC/C=C(\C)C(=O)NC(=C([C@H](OC)C(=O)C[C@@H](C)O)C1=O)C2=O` had a solubility of 7700 µg/mL (≈ 11.1 mM). Also, the IC50 in the data set with HepG2 was found to be 22.4 µM.

Consider `COC1=C2C[C@@H](C)C[C@H](OC)[C@H](O)[C@@H](C)/C=C(\C)[C@H](OC(N)=O)[C@@H](OC)/C=C\C=C(/C)C(=O)NC(=C([C@H](OC)C(=O)C[C@@H](C)O)C1=O)C2=O`, for which the solubility in data set [1] came to 15400 µg/mL (≈ 22.3 mM). The compound further had a concentration for half-maximal inhibition (IC50) in the data set with HepG2 of 14.6 µM.

In the case of `COC1=C2C[C@@H](C)C[C@H](OC)[C@H](O)[C@@H](C)/C=C(\C)[C@H](OC(N)=O)[C@@H](OC)/C=C\C=C(/C)C(=O)NC(=CC1=O)C2=O` [GELDANAMYCIN], in data set [1], the solubility came to 2 µg/mL (≈ 0.00357 mM). The IC50 in the data set on HepG2 was found to be 0.3 µM.
